Reference: PMC10041525, “New Dual Inhibitors of Bacterial Topoisomerases with Broad-Spectrum Antibacterial Activity and In Vivo Efficacy against Vancomycin-Intermediate Staphylococcus aureus” (Journal of Medicinal Chemistry, 2023)
Values after ≈ are worked out from the molar mass of the structure shown. Like-named read-outs stand apart in the source and are kept apart here.

Assays:
P. aeruginosa ATCC 27853 = test system: P. aeruginosa ATCC 27853; design: method as in earlier work; conditions: QC range for P. aeruginosa ATCC 27853, ref CLSI; cited from earlier work
E. faecalis ATCC 29212 = test system: E. faecalis ATCC 29212; design: method as in earlier work; conditions: QC range for E. faecalis ATCC 29212, ref CLSI; cited from earlier work
E. coli ATCC 25922 = test system: E. coli ATCC 25922; design: method as in earlier work; conditions: QC range for E. coli ATCC 25922, ref CLSI; cited from earlier work
S. pneumoniae ATCC 49619 [1] = test: IHMA QC MIC; type: cell-based
Source text: (§1) Supplement jm2c01905_si_004.xlsx, sheet "QC" | column: MIC [µg/mL]

H. influenzae ATCC 49766 = test: IHMA QC MIC; type: cell-based
Source text: as §1

H. influenzae ATCC 49247 [2] = test: IHMA QC MIC; type: cell-based; conditions: Haemophilus influenzae
Source text: as §1

S. pneumoniae ATCC 49619 [3] = test system: S. pneumoniae ATCC 49619; design: method as in earlier work; conditions: QC range for S. pneumoniae ATCC 49619, ref CLSI; cited from earlier work
H. influenzae ATCC 49247 [4] = test system: H. influenzae ATCC 49247; design: method as in earlier work; conditions: QC range for H. influenzae ATCC 49247, ref CLSI; cited from earlier work
[5] = test system: Neisseria gonorrhoeae (n = 12); test: MIC broth microdilution at IHMA Europe; type: cell-based; conditions: for MIC: Neisseria gonorrhoeae, read-out: MIC
[6] = test system: N. gonorrhoeae ATCC 49226; test: IHMA QC MIC; type: cell-based; conditions: Neisseria gonorrhoeae, ATCC49226; QC strain N. gonorrhoeae ATCC 49226, test date 2021-11-18; read-out: MIC
Source text: as §1

[7] = QC strain S. pneumoniae ATCC 49619, test date 2021-11-26
[8] = QC strain H. influenzae ATCC 49766, test date 2021-11-26

SMILES: C[C@@H](O)[C@H]1C(=O)N2C(C(=O)O)=C(SCCNC=N)C[C@H]12 [Imipenem, imipenem]
- MIC, CLSI Range (P. aeruginosa ATCC 27853): 1 to 4 µg/mL
- MIC, CLSI Range (E. faecalis ATCC 29212): 0,5 - 2 µg/mL
- MIC, CLSI Range (E. coli ATCC 25922): 0,06 - 0,25 µg/mL
- MIC (S. pneumoniae ATCC 49619 [1]; [7]): 0.03 µg/mL (≈ 0.1 µM)
- MIC (S. pneumoniae ATCC 49619 [1]; Streptococcus pneumoniae, ATCC49619, QC strain S. pneumoniae ATCC 49619, test date 2021-11-11, read-out: MIC): 0.03 µg/mL (≈ 0.1 µM)
- MIC (H. influenzae ATCC 49766; Haemophilus influenzae, ATCC49766, QC strain H. influenzae ATCC 49766, test date 2021-11-11, read-out: MIC): 0.5 µg/mL (≈ 1.67 µM)
- MIC (H. influenzae ATCC 49766; [8]): 0.5 µg/mL (≈ 1.67 µM)
- MIC (H. influenzae ATCC 49247 [2]; ATCC49247, QC strain H. influenzae ATCC 49247, test date 2021-11-11, read-out: MIC): 0.25 µg/mL (≈ 0.835 µM)
- MIC (H. influenzae ATCC 49247 [2]; ATCC49247, QC strain H. influenzae ATCC 49247, test date 2021-11-26, read-out: MIC): 0.12 µg/mL (≈ 0.401 µM)
- MIC, CLSI Range (S. pneumoniae ATCC 49619 [3]): 0,03 - 0,12 µg/mL

SMILES: C[C@H]1COc2c(N3CCN(C)CC3)c(F)cc3c(=O)c(C(=O)O)cn1c23.C[C@H]1COc2c(N3CCN(C)CC3)c(F)cc3c(=O)c(C(=O)O)cn1c23.O [Levofloxacin, levofloxacin]
- MIC, CLSI Range (P. aeruginosa ATCC 27853): 0,5 - 4 µg/mL
- MIC, CLSI Range (E. faecalis ATCC 29212): 0,25 - 2 µg/mL
- MIC, CLSI Range (E. coli ATCC 25922): 0,008 - 0,06 µg/mL
- MIC (S. pneumoniae ATCC 49619 [1]; [7]): 0.5 µg/mL
- MIC (S. pneumoniae ATCC 49619 [1]; Streptococcus pneumoniae, ATCC49619): 0.5 µg/mL
- MIC (H. influenzae ATCC 49766; Haemophilus influenzae, ATCC49766): 0.015 µg/mL
- MIC (H. influenzae ATCC 49766; [8]): 0.015 µg/mL
- MIC (H. influenzae ATCC 49247 [2]; ATCC49247, QC strain H. influenzae ATCC 49247, test date 2021-11-11): 0.015 µg/mL
- MIC (H. influenzae ATCC 49247 [2]; ATCC49247, QC strain H. influenzae ATCC 49247, test date 2021-11-26): 0.015 µg/mL
- MIC, CLSI Range (H. influenzae ATCC 49247 [4]): 0,008 - 0,03 µg/mL
- MIC, CLSI Range (S. pneumoniae ATCC 49619 [3]): 0,5 - 2 µg/mL

SMILES: O=C(O)c1cn(C2CC2)c2cc(N3CCNCC3)c(F)cc2c1=O [ciprofloxacin]
- Cumulative % at MIC ([5]; MIC 0.004 µg/mL): 41.7%
- No. of isolates at MIC ([5]; MIC 0.004 µg/mL): 5
- Cumulative % at MIC ([5]; MIC >[…] µg/mL): 100.0%
- No. of isolates at MIC ([5]; MIC >[…] µg/mL): 2
- MIC ([5]; isolate IHMA 1123853): > 8 µg/mL
- MIC ([5]; isolate IHMA 1130935): 4 µg/mL (≈ 12.1 µM)
- MIC ([5]; isolate IHMA 1130989): 4 µg/mL (≈ 12.1 µM)
- MIC ([5]; isolate IHMA 1130991): 8 µg/mL (≈ 24.1 µM)
- MIC ([5]; isolate IHMA 1137292): > 8 µg/mL
- MIC ([5]; isolate IHMA 1145734): 8 µg/mL (≈ 24.1 µM)
- MIC ([5]; isolate IHMA 1145735): 4 µg/mL (≈ 12.1 µM)
- MIC ([5]; isolate IHMA 1165897): 0.004 µg/mL (≈ 0.0121 µM)
- MIC ([5]; isolate IHMA 1194748): 0.004 µg/mL (≈ 0.0121 µM)
- MIC ([5]; isolate IHMA 1194750): 0.004 µg/mL (≈ 0.0121 µM)
- MIC ([5]; isolate IHMA 1546199): 0.004 µg/mL (≈ 0.0121 µM)
- MIC ([5]; isolate IHMA 1546215): 0.004 µg/mL (≈ 0.0121 µM)
- MIC [6]: 0.004 µg/mL (≈ 0.0121 µM)
